Tests used:
COX-2 = biological target: T1, COX-2 (Homo sapiens, UniProt P35354); assay: Human whole blood assay (LPS-induced PGE2, COX-2 inhibition); type: cell-based; conditions: LPS stimulated
T1 construct: Fresh blood was collected in tubes containing sodium heparin by vein puncture from healthy male volunteers; endogenous in cells; host or cells: human whole blood from healthy male volunteers, aspirin-pretreated and LPS-stimulated
T1 sequence (P35354 18-604): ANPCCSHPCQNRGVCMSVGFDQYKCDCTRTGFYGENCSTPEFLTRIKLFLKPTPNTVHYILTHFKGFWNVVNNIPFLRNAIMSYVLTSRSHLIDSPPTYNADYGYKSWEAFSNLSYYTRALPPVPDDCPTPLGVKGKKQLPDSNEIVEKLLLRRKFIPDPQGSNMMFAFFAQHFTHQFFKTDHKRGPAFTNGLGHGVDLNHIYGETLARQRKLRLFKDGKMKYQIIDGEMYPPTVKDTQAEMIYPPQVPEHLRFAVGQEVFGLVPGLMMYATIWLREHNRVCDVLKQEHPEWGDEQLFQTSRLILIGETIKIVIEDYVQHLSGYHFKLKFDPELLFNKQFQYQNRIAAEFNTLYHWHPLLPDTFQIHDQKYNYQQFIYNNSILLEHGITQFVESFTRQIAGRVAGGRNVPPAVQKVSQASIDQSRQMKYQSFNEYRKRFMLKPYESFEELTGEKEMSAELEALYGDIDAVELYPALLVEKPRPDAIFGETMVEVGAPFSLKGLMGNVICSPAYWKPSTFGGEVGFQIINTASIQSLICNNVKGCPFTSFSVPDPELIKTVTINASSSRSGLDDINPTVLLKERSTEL
Experimental: Human whole blood provides a protein and cell rich milieu appropriate for the study of biochemical efficacy of anti-inflammatory compounds such as selective COX-2 inhibitors. […] This is correlating with the observation that COX-2 inhibitors have no effect on prostaglandin E2 (PGE2) production in normal blood. These inhibitors were active only after incubation of human blood with lipopolysaccharide (LPS), which induces COX-2 production in the blood.
Fresh blood was collected in tubes containing sodium heparin by vein puncture from healthy male volunteers. The subjects should have no apparent inflammatory conditions and not taken NSAIDs for at least 7 days prior to blood collection. Blood was preincubated with aspirin in vitro (12 μg/ml, at time zero) to inactivate COX-1 for 6 hours. Then test compounds (at various concentrations) or vehicle were added to blood. After that blood was stimulated with LPS B:4 (10 μg/ml) and incubated for another 18 h at 37° C. water bath. After which the blood was centrifuged, plasma was separated and stored at −80° C. (J. Pharmacol. Exp. Ther, 271, 1705, 1994; Proc. Natl. Acad. Sci. USA, 96, 7563, 1999). The plasma was assayed for PGE2 using Cayman ELISA kit as per the procedure outlined by the manufacturer (Cayman Chemicals, Ann Arbor, USA).

Rat Paw Edema model = assay: Carrageenan induced paw edema test in rat; type: in vivo; conditions: 5 mg/kg b. wt., p.o.; 3 hours after carrageenan
Experimental: The carrageenan paw edema test was performed as described by Winter et al (Proc. Soc. Exp. Biol. Med, 111, 544, 1962). Male wistar rats were selected with body weights equivalent within each group. The rats were fasted for eighteen hours with free access to water. The rats were dosed orally with the test compound suspended in vehicle containing 0.25% carboxymethylcellulose and 0.5% Tween 80. The control rats were administered with vehicle alone. After an hour, the rats were injected with 0.1 ml of 1% Carrageenan solution in 0.9% saline into the sub-plantar surface of the right hind paw. Paw volume was measured using digital plethysmograph before and after 3 hours of carrageenan injection. The average of foot swelling in drug treated animals was compared with that of control animals. Anti-inflammatory activity was expressed as the percentage inhibition of edema compared with control group [Arzneim-Forsch/Drug Res., 43 (1), 1, 44-50, 1993; Ottemess and Bliven, Laboratory Models for Testing NSAIDs, In Non-Steroidal Anti-Inflammatory Drugs, (J. Lombardino, ed. 1985)].

Ulcerogenic potential = type: in vivo, rat; conditions: oral; 4 hrs after administration; dose selected 50, 100, 200 mg/kg
Source text: In order to evaluate compound's role on the ulcer formation, the animals were sacrificed and the stomach was taken out and flushed with 1% formalin. Animals (male wistar 200 gm) were fasted for 18 hrs free access to water and the test compounds were suspended in 0.5% Tween 80 and 0.25% CMC (carboxymethylcellulose) solution to make a uniform suspension. After 4 hrs of oral administration of test compounds, all the animals were sacrificed by cervical dislocation. Dissect the stomach carefully and filled up with a sterile saline solution and embedded in 6% formalin solution. […] Compare the test compound treated groups with the vehicle treated groups. Dose selected: 50, 100, 200 mg/kg (Marco Romano et al, Journal of clinical Investigation, 1992; 2409-2421).

MCF-7 = assay: DTP human tumor cell line screen, MCF-7; type: cell-based; conditions: 100 μM; 48 hours; percent growth of control
Experimental: The current assay utilizes a 384 well plate format and fluorescent staining technologies resulting in greater screening capacity for testing of synthetic samples.
The cell lines of the cancer-screening panel are grown in RPMI 1640 medium containing 5% fetal bovine serum and 2 mM L-glutamine. For a typical screening experiment, cells are inoculated into 96 well microtiter plates in 100 μL. After cell inoculation, the micro-titer plates are incubated at 37° C., 5% CO2, 95% air and 100% relative humidity for 24 h prior to addition of experimental drugs. The cells are plated a densities of 5000 cells/well (MCF7), 1000 cells/well (NCI-H460), and 7500 cells/well (SF-268) to allow for varying doubling time of the cell lines. Each plate contains all three-cell lines, a series of dilutions of standard agents, total kill wells and appropriate controls. Plates are incubated under standard conditions for 24 hours prior to addition of experimental compounds or extracts.
Experimental compounds are solubilized in dimethyl sulfoxide (DMSO) at 400-times the desired maximum test concentration (maximum final DMSO concentration of 0.25%) and stored frozen. Compounds are then diluted with complete media with 0.1% gentamicin sulfate (5 μl of test sample in 100% DMSO is added to 565 μl of complete medium). 20 μl of this solution is then dispensed into test wells containing 50 μl of cell suspension to yield a test concentration of 1.00E-04M.
After compound addition, plates are incubated at standard conditions for 48 hours, 10 μl/well Alamar Blue is added and the plates are incubated for an additional 4 hours. Fluorescence is measured using an excitation wavelength of 530 nm and an emission wavelength of 590 nm.
Percent growth is calculated on a plate-by-plate basis for test wells relative to control wells. Percent Growth is expressed as the ratio of fluorescence of the test well to the average fluorescence of the control wells ×100.

CSc1ccc(-c2nc3[nH]nc(N)c3c(=O)n2-c2ccc(C)c(C)c2)cc1 [Example 2, 3-amino-5-(3,4-dimethylphenyl)-6-[4-(methylthio)phenyl]-1,5-dihydro-4H-pyrazolo[3,4-d]pyrimidin-4-one]
inhibition at 0.25 µM (COX-2; 0.25 μM): 21.9% | inhibition at 10 µM (COX-2; 10 μM): 16.8% | Rat Paw Edema model % Inhibition (Rat Paw Edema model): 30.52 ± 10.3% | Ulcer Incidence (Number of animals/Total number of animals) (Ulcerogenic potential): No ulcer | % T/C Breast (MCF-7) (MCF-7): 31%
